For orientation: IC50 means the midpoint of a concentration-inhibition curve.

This experiment can be described thus: Antagonist activity at CCR2 receptor in human monocytes assessed as inhibition of MCP1-mediated chemotaxis.

On to `CC(C)(O)[C@]1(C(=O)NCc2cc(C(F)(F)F)cc(C(F)(F)F)c2)CC[C@@H](N2CCC(c3cncnc3)CC2)C1` [(1S,3R)-N-(3,5-bis(trifluoromethyl)benzyl)-1-(2-hydroxypropan-2-yl)-3-(4-(pyrimidin-5-yl)piperidin-1-yl)cyclopentanecarboxamide], for which the IC50 was determined as 2 nM. Take `CC(C)[C@]1(C(=O)NCc2cc(C(F)(F)F)cc(C(F)(F)F)c2)CC[C@@H](N2CCC(c3cncnc3)CC2)C1` [N-(3,5-bis(trifluoromethyl)benzyl)-1-isopropyl-3-(4-(pyrimidin-5-yl)piperidin-1-yl)cyclopentanecarboxamide]: the IC50 is 2 nM.

The values are drawn from BindingDB's records for doi:10.1016/j.bmcl.2007.12.029 (Merck Research Laboratories, 2008).
